Assay results: US11041000B2, “Peptide inhibitors of interleukin-23 receptor and their use to treat inflammatory diseases” (priority 2019, dated 2021)
Numbered stars: 1 amine (or outer) side, 2 acyl side, 3 side chain; on linkers, the order of the positions; unused ones are H or OH. Bridge positions count the residues as written; N and C are the ends. Square brackets hold non-standard residues; d marks the D form. Peptide text beside a SMILES is read from it. Trp(7-Me) = Cc1cccc2c(C[C@H](N)C(=O)O)c[nH]c12; Abu(4-yl) = O=C([C@H](CC[*:3])N[*:1])[*:2]; 2Nal = N[C@@H](Cc1ccc2ccccc2c1)C(=O)O; AEF = NCCOc1ccc(C[C@H](N)C(=O)O)cc1; Pen = CC(C)(S)[C@H](N)C(=O)O; αMeK = C[C@](N)(CCCCN)C(=O)O; Aib = CC(C)(N)C(=O)O; βAla = NCCC(=O)O

Legend:
[1] = Stability in rat plasma; assay type: in vitro ADME; conditions: both sexes, SD rat plasma, EDTA, 37° C., read-out: t½: Rat Plasma EDTA (converted)
[2] = Stability in cynomolgus monkey fecal homogenate; assay type: in vitro ADME; conditions: 20% fecal homogenate (supernatant), pH 6.8, 20% cynomolgus monkey fecal homogenate, anaerobic, 37° C., read-out: t½: Monkey Feces anaerobic (converted)
Protocol: (§1) Centrifuged the homogenate at 2800×g for 15 min. The supernatant is taken out and used for incubations. […] The final test compound concentration was 20 μM.

[3] = Stability in human fecal homogenate; assay type: in vitro ADME; conditions: 20% fecal homogenate (supernatant), pH 6.8, 20% human fecal homogenate, anaerobic, 37° C., read-out: t½: Human Feces anaerobic (converted)
Protocol: as §1

[4] = molecular target: IL-23R-expressing DB cells (Homo sapiens, UniProt Q5VWK5); assay: DB cells IL23R pSTAT3 cell assay (pStat3HTRF); assay type: cell-based; conditions: DB cells stimulated with IL-23 0.5 nM, 30 minutes, phospho-STAT3 in cell lysates; read-out: pStat3 HTRF
Source text: Human ELISA indicates the IL23-IL23R competitive binding assay described below, Rat ELISA indicates the rat IL-23R competitive binding ELISA assay described below, and pStat3HTRF indicates the DB cells IL-23R pSTAT3 cell assay described below. The peptides depicted in Table E1 are cyclized via a disulfide bridge formed between two Pen residues in these peptides. The peptides depicted in Table E2 are cyclized via a thioether bond between the indicated amino acid residues. Table E2 provides an illustrative structure depicting thioether cyclization, which is indicated in the table by the term “cyclo,” with the cyclic region bracketed immediately following the term “cyclo.” For certain peptides, the residue Abu is present where indicated, whereas in other embodiments, e.g., those related to the non-cyclized form, the Abu may be referred to as a hSer(Cl) or homoSer residue. The petpides depicted in Table E3 are cyclized via a disulfide bridge formed between two Pen residues or a thioether bond between Abu and Cys.
IL-23 plays a central role in supporting and maintaining Th17 differentiation in vivo. This process is thought to be mediated primarily through the Signal Transducer and Activator of Transcription 3 (STAT3), with phosphorylation of STAT3 (to yield pSTAT3) leading to upregulation of RORC and pro-inflammatory IL-17. This cell assay examines the levels of pSTAT3 in IL-23R-expressing DB cells when stimulated with IL-23 in the presence of test compounds. Serial dilutions of test peptides and IL-23 (Humanzyme #HZ-1261) at a final concentration of 0.5 nM, were added to each well in a 96 well tissue culture plate (Corning #CLS3894). DB cells (ATCC #CRL-2289), cultured in RPMI-1640 medium (Thermo Scientific #11875093) supplemented with 10% FBS, were added at 5×10E5 cells/well and incubated for 30 minutes at 37° C. in a 5% CO2 humidified incubator. Changes in phospho-STAT3 levels in the cell lysates were detected using the Cisbio HTRF pSTAT3 (Tyr705) Cellular Assay Kit (Cisbio #62AT3PEH), according to manufacturer's Two Plate Assay protocol.

[5] = Stability in simulated intestinal fluid (SIF); assay type: in vitro ADME; conditions: simulated intestinal fluid with pancreatin, pH 6.8, 37° C., matrix is 100 fold dilution of standard SIF concentration; for SIF t½: 20 μM; for half-life at 20 μM: read-out: SIF t½ (converted)
Protocol: SIF was prepared by adding 6.8 g of monobasic potassium phosphate and 10.0 g of pancreatin to 1.0 L of water. After dissolution, the pH was adjusted to 6.8 using NaOH. DMSO stocks (2 mM) were first prepared for the test compounds. Aliquots of the DMSO solutions were dosed into 6 individual tubes, each containing 0.5 mL of SIF, which is pre-warmed to 37° C. The final test compound concentration was 20 μM. The vials were kept in a benchtop Thermomixer® for the duration of the experiment. At each timepoint (0, 5, 10, 20, 40, 60, or 360 minutes or 24 hours), 1.0 mL of acetonitrile containing 1% formic acid was added to one vial to terminate the reaction. Samples were stored at 4° C. until the end of the experiment. After the final timepoint is sampled, the tubes were mixed and then centrifuged at 3,000 rpm for 10 minutes. Aliquots of the supernatant were removed, diluted 1:1 into distilled water containing internal standard, and analyzed by LCMS/MS. Percent remaining at each timepoint was calculated based on the peak area response ratio of test to compound to internal standard. Time 0 was set to 100%, and all later timepoints were calculated relative to time 0. Half-lives were calculated by fitting to a first-order exponential decay equation using Graphpad.

Chain of IL-23R-expressing DB cells (Q5VWK5 24-629 limits assumed): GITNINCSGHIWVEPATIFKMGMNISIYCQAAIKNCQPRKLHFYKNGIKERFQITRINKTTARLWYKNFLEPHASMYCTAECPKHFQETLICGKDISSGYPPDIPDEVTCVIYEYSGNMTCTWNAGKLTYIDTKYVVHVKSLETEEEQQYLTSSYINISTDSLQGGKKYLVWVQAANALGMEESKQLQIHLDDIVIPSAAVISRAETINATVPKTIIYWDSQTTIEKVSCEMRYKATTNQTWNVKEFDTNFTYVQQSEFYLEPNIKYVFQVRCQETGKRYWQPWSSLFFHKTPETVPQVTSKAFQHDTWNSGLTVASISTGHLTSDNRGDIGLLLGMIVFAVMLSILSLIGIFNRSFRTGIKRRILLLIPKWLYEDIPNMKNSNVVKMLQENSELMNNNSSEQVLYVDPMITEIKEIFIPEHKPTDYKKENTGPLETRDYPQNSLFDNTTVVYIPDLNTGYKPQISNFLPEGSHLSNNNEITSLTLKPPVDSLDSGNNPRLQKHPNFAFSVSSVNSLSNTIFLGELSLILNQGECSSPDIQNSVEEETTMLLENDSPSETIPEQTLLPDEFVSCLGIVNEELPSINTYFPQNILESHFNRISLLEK

| Structure (SMILES) | half-life at 20 μM [1] [h] | half-life at 20 μM [2] [h] | half-life at 20 μM [3] [h] | IC50 [4] [nM] | SIF t½ [5] [h] | half-life at 20 μM ([2]; cynomolgus monkey) [h] | half-life at 20 μM [5] [h] |
| --- | --- | --- | --- | --- | --- | --- | --- |
| CC(=O)NCCCC[C@H](NC(=O)[C@](C)(CCCCN)NC(=O)[C@H](Cc1ccc2ccccc2c1)NC(=O)[C@H](Cc1ccc(OCCN)cc1)NC(=O)[C@H]1NC(=O)[C@H](CCCCNC(=O)C2CCCCC2)NC(=O)[C@H](Cc2c[nH]c3c(C)cccc23)NC(=O)[C@H]([C@@H](C)O)NC(=O)[C@H](CC(N)=O)NC(=O)[C@@H](NC(C)=O)C(C)(C)SSC1(C)C)C(=O)N[C@@H](CC(N)=O)C(=O)N[C@H](CC(C)C)C(N)=O [compound 316] | > 24 | > 24 | > 24 | 5.6 | 24 |  |  |
| CC(=O)NCCCC[C@H](NC(=O)[C@](C)(CCCCN)NC(=O)[C@H](Cc1ccc2ccccc2c1)NC(=O)[C@H](Cc1ccc(OCCN)cc1)NC(=O)[C@H]1NC(=O)[C@H](CCC(N)=O)NC(=O)[C@H](Cc2c[nH]c3c(C)cccc23)NC(=O)[C@H]([C@@H](C)O)NC(=O)C(C)(C)NC(=O)[C@@H](NC(C)=O)C(C)(C)SSC1(C)C)C(=O)N[C@@H](CC(N)=O)C(=O)NCCC(N)=O [compound 240] (Ac-[Pen][Aib]T[Trp(7-Me)]Q[Pen][AEF][2Nal][αMeK]K(Ac)N[βAla]-NH2; disulfide 1-6) | 8 |  | 4 | 17.7 |  | 3 | 7 |
| CC(=O)NCCCC[C@@H]1NC(=O)[C@H](Cc2c[nH]c3c(C)cccc23)NC(=O)[C@H]([C@@H](C)O)NC(=O)[C@H](CC(N)=O)NC(=O)[C@@H](NC(C)=O)C(C)(C)SSC(C)(C)[C@@H](C(=O)N[C@@H](Cc2ccc(OCCN)cc2)C(=O)N[C@@H](Cc2ccc3ccccc3c2)C(=O)N[C@@](C)(CCCCN)C(=O)N[C@@H](CCCCNC(C)=O)C(=O)N[C@@H](CC(N)=O)C(=O)N[C@H](Cc2ccccc2)C(N)=O)NC1=O [compound 258] | > 24 |  | > 24 | 0.92 |  | > 24 | 14 |
| CC(=O)NCCCC[C@@H]1NC(=O)[C@H](Cc2c[nH]c3c(C)cccc23)NC(=O)[C@H]([C@@H](C)O)NC(=O)[C@H](CCC(N)=O)NC(=O)[C@@H](NC(=O)[C@@H](CCCNC(=N)N)NC(C)=O)CCSC[C@@H](C(=O)N[C@@H](Cc2ccc(OCCN)cc2)C(=O)N[C@@H](Cc2ccc3ccccc3c2)C(=O)N[C@@](C)(CCCCN)C(=O)N[C@@H](CCCCNC(C)=O)C(=O)N[C@@H](CC(N)=O)C(=O)N[C@H](CC(C)C)C(N)=O)NC1=O [compound 325] (Ac-[dR][Abu(4-yl)]QT[Trp(7-Me)]K(Ac)C[AEF][2Nal][αMeK]K(Ac)N[dL]-NH2; thioether 2-7) | > 24 |  | > 24 | 4.45 |  | 22 | 14 |
| CC(=O)NCCCC[C@H](NC(=O)[C@](C)(CCCCN)NC(=O)[C@H](Cc1ccc2ccccc2c1)NC(=O)[C@H](Cc1ccc(OCCN)cc1)NC(=O)[C@H]1NC(=O)[C@H](CCCCNC(=O)C(C)(C)N)NC(=O)[C@H](Cc2c[nH]c3c(C)cccc23)NC(=O)[C@H]([C@@H](C)O)NC(=O)[C@H](CC(N)=O)NC(=O)[C@@H](NC(C)=O)C(C)(C)SSC1(C)C)C(=O)N[C@@H](CC(N)=O)C(=O)N[C@H](CC(C)C)C(N)=O [compound 322] | > 24 |  | > 24 | 0.648 | 24 | > 24 |  |
| CC(=O)NCCCC[C@H](NC(=O)[C@](C)(CCCCN)NC(=O)[C@H](Cc1ccc2ccccc2c1)NC(=O)[C@H](Cc1ccc(OCCN)cc1)NC(=O)[C@H]1NC(=O)[C@H](CCC(N)=O)NC(=O)[C@H](Cc2c[nH]c3c(C)cccc23)NC(=O)[C@H]([C@@H](C)O)NC(=O)[C@H](CC(N)=O)NC(=O)[C@@H](NC(C)=O)C(C)(C)SSC1(C)C)C(=O)N[C@@H](CC(N)=O)C(=O)NCCC(N)=O [compound 267] | > 24 |  | > 24 | 0.506 |  |  |  |
